Measured values published in patent US8088801B2, “Aryloazol-2-yl cyanoethylamino compounds, method of making and method of using thereof” (Merial Limited, priority 2007, dated 2012).

Assays:
[1] = tested on: Trichostrongylus colubriformis; assay: Method D: screening against Trichostrongylus colubriformis, L1 larvae in microtitre plate; conditions: 96 h, 4 days assessment, read-out: motility inhibition; for inhibition at 0.01 ppm: test concentration 0.01 ppm; for inhibition at 0.0025 ppm: test concentration 0.0025 ppm
Experimental: Method D: Screening Method to Test Activity of Compounds Against Trichostrongylus colubriformis.
Twenty L1 Trichostrongylus colubriformis larvae were added to wells of a microtitre plate containing a nutrient medium and the test compound in DMSO. The microtitre plate was then held at 27° C. where the L1 larvae were allowed to develop. An analysis was conducted at 4 days to determine successful development to the L3 stage. Larvae exposed to DMSO and no test compound served as controls. Compounds numbers 1.008, 1.014, 1.042, 1.047, 1.048, 1.073, 2.001, 2.003 and 2.020, gave at least 90% motility inhibition at a test concentration of 0.15 ppm at the 4 days assessment. Compounds numbers 1.001, 1.003, 1.007, 1.011, 1.037, 1.038, 1.043, 1.056, 1.066, 1.070, 1.071, 2.012 and 2.016, gave at least 90% motility inhibition at a test concentration of 0.04 ppm at the 4 days assessment. Compounds numbers 1.012, 1.020, 1.021, 1.033, 1.034, 1.039, 1.064, 1.065, 2.008, 2.009 and 3.005 gave at least 90% motility inhibition at a test concentration of 0.01 ppm at the 4 days assessment. Compounds numbers 1.094, 2.040, 2.048, 2.049, 3.006, 3.009, 3.011 and 3.012 gave at least 90% motility inhibition at a test concentration of 0.0025 ppm at the 4 days assessment.

Haemonchus contortus [2] = assay: Method B: Haemonchus contortus in vivo in Mongolian gerbil, oral gavage; design: species or system Mongolian gerbil (Meriones unguiculatus); conditions: 72 h, Mongolian gerbils, read-out: reduction in nematode infestation
Experimental: Method B: Screening Method to Test Activity of Compounds Against Haemonchus contortus In Vivo in Mongolian Gerbil (Meriones unguiculatus).
Mongolian gerbils, at least five weeks old, were immunosuppressed and artificially infected with ca. 1000 ensheathed Haemonchus contortus third instar larvae. Six days after infection, the Mongolian gerbils were treated by oral gavage with the test compounds, dissolved in a mixture of 2 parts DMSO and 1 part polyethylene glycol (PEG400), at doses of 100 mg/kg and dissolved in pure polyethylene glycol (PEG400) at doses of 10 and 1 mg/kg. Jirds treated only with the placebo (2 parts DMSO and 1 part PEG400 or pure PEG400) served as controls. On day 9 (3 days after treatment) the jirds were euthanized and necropsied for recovery of parasites from the stomach. Efficacy was calculated as the average % reduction in the number of worms in each test group compared with the average number of worms from the control group. […] Compound numbers 1.001, 1.008, 1.012, 1.013 and 1.014 provided at least 95% reduction in nematode infestation in Mongolian gerbils treated by oral gavage with test article at a dose of 100 mg/kg. Compound numbers 1.012, 1.033, 1.064, 2.008, 2.037, 2.038, 2.040, 2.041, 3.001 provided at least 95% reduction in nematode infestation at a dose of 10 mg/kg. Compound numbers 1.094, 2.048, 3.001, 3.007 and 3.009, provided at least 95% reduction in nematode infestation at a dose of 1 mg/kg. Compound numbers 3.005, 3.006, 3.011, 3.012, 3.017 and 3.019, provided at least 95% reduction in nematode infestation at a dose of 0.5 mg/kg.

Haemonchus contortus [3] = assay: Method A: screening against Haemonchus contortus, L1 larvae in microtitre plate; conditions: 96 h, 4 days assessment, read-out: motility inhibition; for inhibition at 0.01 ppm: test concentration 0.01 ppm; for inhibition at 0.0025 ppm: test concentration 0.0025 ppm
From the text: Method A: Screening Method to Test Activity of Compounds Against Haemonchus contortus.

[4] = tested on: Microfilaria of Dirofilaria immitis; assay: Method F: microfilaria of Dirofilaria immitis in microtitre plate; conditions: test concentration 50 ppm, assessment at 24 hours, read-out: motility inhibition
Experimental: Method F: Screening Method to Test Activity of Compounds Against Microfilaria of Dirofilaria immitis.
Four hundred to six hundred microfilaria of Dirofilaria immitis were added to wells of a microtitre plate containing buffer and the test compound in DMSO. The microtitre plate was then held at 37° C. in an environment containing 5% CO2. An assessment was conducted at 24 hours to determine survival of the microfilaria. Microfilaria exposed to DMSO and no test compound served as controls. Compounds numbers 1.003, 1.012, 1.013, 1.064, 1.086, 1.087, 1.090, 1.094, 2.043, 2.046, 2.047, 2.048, 2.049, 3.005, 3.006, 3.009, 3.011, 3.012, 3.017, 3.019 and 3.023 gave at least 90% motility inhibition at a test concentration of 50 ppm.

Structure (SMILES)	inhibition at 0.01 ppm [1]	inhibition in vivo at 10 mg/kg (Haemonchus contortus [2])	inhibition at 50 ppm [4]	inhibition at 0.0025 ppm (Haemonchus contortus [3])	inhibition at 0.0025 ppm [1]	other results
CC(C#N)(Cn1nc2cc(Cl)cc(Cl)c2n1)NC(=O)c1ccc(OC(F)(F)F)cc1 (stereo not shown) [Compound 1.012, N-[1-Cyano-2-(4,6-dichloro-2H-benzotriazol-2-yl)-1-methylethyl]-4-trifluoromethoxybenzamide]	≥ 90%	≥ 95%	≥ 90%			inhibition in vivo at 100 mg/kg (Haemonchus contortus [2]; dose 100 mg/kg, necropsy 3 days after treatment): ≥ 95%; inhibition at 0.01 ppm (Haemonchus contortus [3]): ≥ 90%
Cc1cc(Cl)cc2nn(CC(C)(C#N)NC(=O)c3ccc(OC(F)(F)F)cc3)nc12 (stereo not shown) [Compound 1.033, N-[−2-(6-Chloro-4-methyl-2H-benzotriazol-2-yl)-1-cyano-1-methylethyl]-4-trifluoromethoxybenzamide]	≥ 90%	≥ 95%				inhibition at 0.01 ppm (Haemonchus contortus [3]): ≥ 90%
CC(C#N)(Cn1nc2c(Cl)cc(Cl)c(Cl)c2n1)NC(=O)c1ccc(OC(F)(F)F)cc1 (stereo not shown) [Compound 1.064, N-[1-Cyano-1-methyl-2-(4,5,7-trichloro-2H-benzotriazol-2-yl)-ethyl]-4-trifluoromethoxybenzamide]	≥ 90%	≥ 95%	≥ 90%	≥ 90%		
CC(C#N)(Cn1nc2c(Cl)cc(Cl)c(Br)c2n1)NC(=O)c1ccc(OC(F)(F)F)cc1 (stereo not shown) [Compound 1.086, N-[2-(4-Bromo-5,7-dichloro-2H-benzotriazol-2-yl)-1-cyano-1-methylethyl]-4-trifluoromethoxybenzamide]			≥ 90%	≥ 90%		
CC(C#N)(Cn1nc2c(Cl)cc(Cl)c(F)c2n1)NC(=O)c1ccc(OC(F)(F)F)cc1 (stereo not shown) [Compound 1.090, N-[1-Cyano-2-(5,7-dichloro-4-fluoro-2H-benzotriazol-2-yl)-1-methylethyl]-4-trifluoromethoxybenzamide]			≥ 90%	≥ 90%		
Cc1cc(Br)c(F)c2nn(CC(C)(C#N)NC(=O)c3ccc(OC(F)(F)F)cc3)nc12 (stereo not shown) [Compound 1.094, N-[2-(5-bromo-4-fluoro-7-methyl-2H-benzotriazol-2-yl)-1-cyano-1-methylethyl]-4-trifluoromethoxybenzamide]			≥ 90%	≥ 90%	≥ 90%	inhibition in vivo at 1 mg/kg (Haemonchus contortus [2]): ≥ 95%
COc1c2ccc(Cl)cc2nn1CC(C)(C#N)NC(=O)c1ccc(OC(F)(F)F)cc1 (stereo not shown) [Compound 2.008, N-[2-(6-Chloro-3-methoxy-2H-indazol-2-yl)-1-cyano-1-methylethyl]-4-trifluoromethoxybenzamide]	≥ 90%	≥ 95%		≥ 90%		
CC(C#N)(Cn1cc2c(Cl)cc(Cl)cc2n1)NC(=O)c1ccc(OC(F)(F)F)cc1 (stereo not shown) [Compound 2.040, N-[1-Cyano-2-(4,6-dichloro-2H-indazol-2-yl)-1-methylethyl]-4-trifluoromethoxybenzamide]		≥ 95%		≥ 90%	≥ 90%	
CC(C#N)(Cn1cc2ccc(Cl)c(Br)c2n1)NC(=O)c1ccc(OC(F)(F)F)cc1 (stereo not shown) [Compound 2.043, N-[2-(7-Bromo-6-chloro-2H-indazol-2-yl)-1-cyano-1-methylethyl]-4-trifluoromethoxybenzamide]			≥ 90%	≥ 90%		
CC(C#N)(Cn1nc2c(Br)c(Cl)cc(Cl)c2c1Br)NC(=O)c1ccc(OC(F)(F)F)cc1 (stereo not shown) [Compound 2.046, N-[1-Cyano-2-(3,7-dibromo-4,6-dichloro-2H-indazol-2-yl)-1-methylethyl]-4-trifluoromethoxybenzamide]			≥ 90%	≥ 90%		
CC(C#N)(Cn1cc2c(Cl)cc(Cl)c(Cl)c2n1)NC(=O)c1ccc(OC(F)(F)F)cc1 (stereo not shown) [Compound 2.048, N-[1-Cyano-1-methyl-2-(4,6,7-trichloro-2H-indazol-2-yl)ethyl]-4-trifluoromethoxybenzamide]			≥ 90%	≥ 90%	≥ 90%	inhibition in vivo at 1 mg/kg (Haemonchus contortus [2]): ≥ 95%
CC(C#N)(Cn1cc2ncc(Cl)cc2n1)NC(=O)c1ccc(OC(F)(F)F)cc1 (stereo not shown) [Compound 3.005, N-[2-(6-Chloro-2H-pyrazolo[4,3-b]pyridin-2-yl)-1-cyano-1-methylethyl]-4-trifluoromethoxybenzamide]	≥ 90%		≥ 90%			inhibition in vivo at 0.5 mg/kg (Haemonchus contortus [2]): ≥ 95%; inhibition at 0.01 ppm (Haemonchus contortus [3]): ≥ 90%
Cc1c(Br)cnc2cn(CC(C)(C#N)NC(=O)c3ccc(OC(F)(F)F)cc3)nc12 (stereo not shown) [Compound 3.009, N-[2-(6-Bromo-7-methyl-2H-pyrazolo[4,3-b]pyridin-2-yl)-1-cyano-1-methylethyl]-4-trifluoromethoxybenzamide]			≥ 90%	≥ 90%	≥ 90%	inhibition in vivo at 1 mg/kg (Haemonchus contortus [2]): ≥ 95%
CC(C#N)(Cn1cc2ncc(Br)cc2n1)NC(=O)c1ccc(OC(F)(F)F)cc1 (stereo not shown) [Compound 3.011, N-[2-(6-Bromo-2H-pyrazolo[4,3-b]pyridin-2-yl)-1-cyano-1-methylethyl]-4-trifluoromethoxybenzamide]			≥ 90%	≥ 90%	≥ 90%	inhibition in vivo at 0.5 mg/kg (Haemonchus contortus [2]): ≥ 95%
CC(C#N)(Cn1nc2cc(Cl)cnc2c1Cl)NC(=O)c1ccc(OC(F)(F)F)cc1 (stereo not shown) [Compound 3.017, N-[1-Cyano-2-(3,6-dichloro-2H-pyrazolo[4,3-b]pyridin-2-yl)-1-methylethyl]-4-trifluoromethoxybenzamide]			≥ 90%			inhibition in vivo at 0.5 mg/kg (Haemonchus contortus [2]): ≥ 95%; inhibition at 0.01 ppm (Haemonchus contortus [3]): ≥ 90%
CC(C#N)(Cn1nc2cc(Cl)cnc2c1Br)NC(=O)c1ccc(OC(F)(F)F)cc1 (stereo not shown) [Compound 3.019, N-[2-(3-Bromo-6-chloro-2H-pyrazolo[4,3-b]pyridin-2-yl)-1-cyano-1-methylethyl]-4-trifluoromethoxybenzamide]			≥ 90%			inhibition in vivo at 0.5 mg/kg (Haemonchus contortus [2]): ≥ 95%; inhibition at 0.04 ppm (Haemonchus contortus [3]; test concentration 0.04 ppm): ≥ 90%
